What all share (assay type): biochemical
In test [1] the target is Pim-2 (Homo sapiens (Human), UniProt Q9P1W9). Kind of test: Pim-2 kinase assay. The conditions noted are these: 1 mM ATP; read-out: PIM2 IC50. Put shortly:
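TR-FRET assay with 1 nM enzyme, 0.05 μM fluorescein-CREBtide and 1 mM ATP in Tris pH 7.5 buffer with MgCl2, DTT, BSA and Tween-20, run 2 h at 25° C. Stopped with EDTA and Tb-labelled anti-CREB pSer133 antibody, then read after 30 min at room temperature.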

In test [2] the target is Pim-3 (Homo sapiens (Human), UniProt Q86V86). In words: Pim-3 kinase assay. The conditions noted are these: 1 mM ATP; read-out: PIM3 IC50. Summed up: (§1)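 Enzyme at 2.5 pM (Pim-1) or 1.25 pM (Pim-3) reacted 1 h at 25° C with 1 mM ATP and 0.05 μM biotinylated BAD peptide, pH 7.5. Phospho-Ser112 BAD detected by antibody/Protein-A acceptor and streptavidin donor bead proximity signal after EDTA quench and 1 h dark incubation.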

Test [3] deals with Pim-1 (Homo sapiens (Human), UniProt P11309). In words: Pim-1 kinase assay. The conditions noted are these: 1 mM ATP; read-out: PIM1 IC50. Put shortly:
as §1

The values below come from patent US9920032B2, “Heterocyclic compounds useful as pim kinase inhibitors” (Incyte Corporation, priority 2015, dated 2018).

Sequence of Pim-2 (Q9P1W9 whole entry): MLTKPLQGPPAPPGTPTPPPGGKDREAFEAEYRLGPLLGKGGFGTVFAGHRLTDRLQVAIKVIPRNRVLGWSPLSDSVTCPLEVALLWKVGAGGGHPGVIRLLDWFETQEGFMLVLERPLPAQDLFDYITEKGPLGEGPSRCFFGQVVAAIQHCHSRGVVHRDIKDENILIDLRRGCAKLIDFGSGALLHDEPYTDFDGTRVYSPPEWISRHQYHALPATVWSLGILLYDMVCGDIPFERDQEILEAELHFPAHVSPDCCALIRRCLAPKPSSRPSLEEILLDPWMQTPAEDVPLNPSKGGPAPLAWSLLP
Sequence of Pim-1 (P11309 whole entry): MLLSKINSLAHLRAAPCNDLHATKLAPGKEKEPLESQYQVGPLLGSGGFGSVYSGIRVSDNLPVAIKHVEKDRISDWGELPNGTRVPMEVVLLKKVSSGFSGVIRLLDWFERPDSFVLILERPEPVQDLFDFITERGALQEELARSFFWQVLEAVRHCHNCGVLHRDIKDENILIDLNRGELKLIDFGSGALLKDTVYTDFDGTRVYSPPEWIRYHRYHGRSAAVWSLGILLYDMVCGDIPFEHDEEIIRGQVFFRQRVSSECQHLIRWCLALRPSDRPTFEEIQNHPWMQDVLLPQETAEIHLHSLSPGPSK

What is called IC50 is the midpoint of a concentration-inhibition curve. For the compound `C[C@@H]1C[C@H](N)C[C@H](c2ccncc2NC(=O)c2ccc(F)c3cc(N(C)c4ccccc4)cnc23)C1` [Example 83, N-(4-((1R,3S,5S)-3-Amino-5-methylcyclohexyl)pyridin-3-yl)-5-fluoro-3-(methyl(phenyl)amino)quinoline-8-carboxamide], the figures for the IC50 in test [1], in test [2] and in test [3] were at most 100 nM, at most 10 nM and at most 10 nM, respectively.

Take `C[C@@H]1C[C@H](N)C[C@H](c2ccncc2NC(=O)c2ccc(F)c3cc(N4CC[C@H](O)[C@@H](F)C4)cnc23)C1` [Example 108, N-(4-((1R,3S,5S)-3-Amino-5-methylcyclohexyl)pyridin-3-yl)-5-fluoro-3-((3S,4S)-3-fluoro-4-hydroxypiperidin-1-yl)quinoline-8-carboxamide]: the IC50 in test [1] was at most 100 nM; in test [2] it was at most 10 nM; in test [3], at most 10 nM.

On to `C[C@@H]1C[C@H](N)C[C@H](c2ccncc2NC(=O)c2ccc(F)c3cc(N(C)CCF)cnc23)C1` [Example 22, N-{4-[(1R,3S,5S)-3-Amino-5-methylcyclohexyl]pyridin-3-yl}-5-fluoro-3-[(2-fluoroethyl)(methyl)amino]quinoline-8-carboxamide], for which the figures for the IC50 in test [1], in test [2] and in test [3] were at most 100 nM, at most 10 nM and at most 10 nM, respectively.

For `CCc1cnc2c(C(=O)Nc3cnccc3[C@@H]3C[C@H](C)C[C@H](N)C3)ccc(F)c2c1` [Example 1, N-{4-[(1R,3S,5S)-3-Amino-5-methylcyclohexyl]pyridin-3-yl}-3-ethyl-5-fluoroquinoline-8-carboxamide], the IC50 in test [1] is 100 to 1000 nM; in test [2], at most 10 nM; in test [3], at most 10 nM.

For `C[C@@H]1C[C@H](N)C[C@H](c2ccncc2NC(=O)c2ccc(F)c3cc(N(C)c4ccncc4F)cnc23)C1` [Example 145, N-(4-((1R,3S,5S)-3-Amino-5-methylcyclohexyl)pyridin-3-yl)-5-fluoro-3-((3-fluoropyridin-4-yl)(methyl)amino)quinoline-8-carboxamide], the IC50 in test [1] was at most 100 nM; in test [2] it was at most 10 nM; in test [3], at most 10 nM.

Take `C[C@@H]1C[C@H](N)C[C@H](c2ccncc2NC(=O)c2ccc(F)c3cc(N4CCN(C)C(=O)[C@@H]4C)cnc23)C1` [Example 112, N-(4-((1R,3S,5S)-3-Amino-5-methylcyclohexyl)pyridin-3-yl)-3-((5)-2,4-dimethyl-3-oxopiperazin-1-yl)-5-fluoroquinoline-8-carboxamide]: the IC50 was at most 100 nM in test [1], at most 10 nM in test [2] and at most 10 nM in test [3].

For the compound `CO[C@@H]1CCN(c2cnc3c(C(=O)Nc4cnccc4[C@@H]4C[C@H](C)C[C@H](N)C4)ccc(F)c3c2)C1` [Example 49, N-(4-((1R,3S,5S)-3-amino-5-methylcyclohexyl)pyridin-3-yl)-5-fluoro-3-((R)-3-methoxypyrrolidin-1-yl)quinoline-8-carboxamide], the IC50 was 100 to 1000 nM in test [1], at most 10 nM in test [2] and at most 10 nM in test [3].

On to `C[C@@H]1C[C@H](N)C[C@H](c2ccncc2NC(=O)c2ccc(F)c3cc(N(C)CC4CC4)cnc23)C1` [Example 19, N-{4-[(1R,3S,5S)-3-Amino-5-methylcyclohexyl]pyridin-3-yl}-3-[(cyclopropylmethyl)(methyl)amino]-5-fluoroquinoline-8-carboxamide], for which the IC50 is 100 to 1000 nM in test [1], at most 10 nM in test [2] and at most 10 nM in test [3].

In the case of `C[C@@H]1C[C@H](N)C[C@H](c2ccncc2NC(=O)c2ccc(F)c3cc(N4CC[C@H]4C)cnc23)C1` [Example 167, N-(4-((1R,3S,5S)-3-Amino-5-methylcyclohexyl)pyridin-3-yl)-5-fluoro-3-((R)-2-methylazetidin-1-yl)quinoline-8-carboxamide], the IC50 in test [1] is at most 100 nM; in test [2] it was at most 10 nM; in test [3], at most 10 nM.

On to `C[C@@H]1C[C@H](N)C[C@H](c2ccncc2NC(=O)c2ccc(F)c3cc(-c4cnn(C)c4)cnc23)C1` [Example 64, N-(4-((1R,3S,5S)-3-Amino-5-methylcyclohexyl)pyridin-3-yl)-5-fluoro-3-(1-methyl-1H-pyrazol-4-yl)quinoline-8-carboxamide], for which the IC50 in test [1] was 100 to 1000 nM; in test [2], at most 10 nM; in test [3], at most 10 nM.

For `CC(C)CN1CCN(c2cnc3c(C(=O)Nc4cnccc4[C@@H]4C[C@H](C)C[C@H](N)C4)ccc(F)c3c2)CC1=O` [Example 117, N-(4-((1R,3S,5S)-3-Amino-5-methylcyclohexyl)pyridin-3-yl)-5-fluoro-3-(4-isobutyl-3-oxopiperazin-1-yl)quinoline-8-carboxamide], the IC50 in test [1] was at most 100 nM; in test [2], at most 10 nM; in test [3] it was at most 10 nM.

In the case of `C[C@@H]1C[C@H](N)C[C@H](c2ccncc2NC(=O)c2ccc(F)c3cc(N4CCC(C)(O)CC4)cnc23)C1` [Example 41, N-(4-((1R,3S,5S)-3-Amino-5-methylcyclohexyl)pyridin-3-yl)-5-fluoro-3-(4-hydroxy-4-methylpiperidin-1-yl)quinoline-8-carboxamide], the IC50 in test [1] was 100 to 1000 nM; in test [2] it was 10 to 50 nM; in test [3], 10 to 50 nM.

In the case of `CO[C@@H]1CCN(c2cnc3c(C(=O)Nc4cnccc4[C@@H]4C[C@H](C)C[C@H](N)C4)ccc(F)c3c2)[C@@H](C)C1` [Example 160, N-(4-((1R,3S,5S)-3-Amino-5-methylcyclohexyl)pyridin-3-yl)-5-fluoro-3-((2S,4R)-4-methoxy-2-methylpiperidin-1-yl)quinoline-8-carboxamide], the half-inhibitory concentration (IC50) is at most 100 nM in test [1], at most 10 nM in test [2] and at most 10 nM in test [3].

With `C[C@@H]1C[C@H](N)C[C@H](c2ccncc2NC(=O)c2ccc(F)c3cc(-c4ccc(F)c5cccnc45)cnc23)C1` [Example 60, N-(4-((1R,3S,5S)-3-Amino-5-methylcyclohexyl)pyridin-3-yl)-5,5′-difluoro-3,8′-biquinoline-8-carboxamide], the IC50 in test [1] is 1000 to 10000 nM; in test [2], 10 to 50 nM; in test [3] it was at most 10 nM.

In the case of `C[C@@H]1C[C@H](N)C[C@H](c2ccncc2NC(=O)c2ccc(F)c3cc(N4CCN(C(=O)N(C)C)CC4)cnc23)C1` [Example 82, N-(4-((1R,3S,5S)-3-Amino-5-methylcyclohexyl)pyridin-3-yl)-3-(4-(dimethylcarbamoyl)piperazin-1-yl)-5-fluoroquinoline-8-carboxamide], the figures for the IC50 in test [1], in test [2] and in test [3] were 100 to 1000 nM, at most 10 nM and at most 10 nM, respectively.

With `COc1ccccc1N(C)c1cnc2c(C(=O)Nc3cnccc3[C@@H]3C[C@H](C)C[C@H](N)C3)ccc(F)c2c1` [Example 152, N-(4-((1R,3S,5S)-3-Amino-5-methylcyclohexyl)pyridin-3-yl)-5-fluoro-3-((2-methoxyphenyl)(methyl)amino)quinoline-8-carboxamide], the IC50 in test [1] is at most 100 nM; in test [2] it was at most 10 nM; in test [3] it was at most 10 nM.

Turning to `C[C@@H]1C[C@H](N)C[C@H](c2ccncc2NC(=O)c2ccc(F)c3cc(NCC(F)F)cnc23)C1` [Example 27, N-{4-[(1R,3S,5S)-3-Amino-5-methylcyclohexyl]pyridin-3-yl}-3-[(2,2-difluoroethyl)amino]-5-fluoroquinoline-8-carboxamide], the IC50 is at most 100 nM in test [1], at most 10 nM in test [2] and at most 10 nM in test [3].

Take `Cc1ccncc1N(C)c1cnc2c(C(=O)Nc3cnccc3[C@@H]3C[C@H](C)C[C@H](N)C3)ccc(F)c2c1` [Example 146, N-(4-((1R,3S,5S)-3-Amino-5-methylcyclohexyl)pyridin-3-yl)-5-fluoro-3-(methyl(4-methylpyridin-3-yl)amino)quinoline-8-carboxamide]: the IC50 in test [1] was at most 100 nM; in test [2] it was at most 10 nM; in test [3], at most 10 nM.

Turning to `C[C@@H]1C[C@H](N)C[C@H](c2ccncc2NC(=O)c2ccc(F)c3cc(N4C[C@H]5C[C@@H]4CO5)cnc23)C1` [Example 80, N-(4-((1R,3S,5S)-3-Amino-5-methylcyclohexyl)pyridin-3-yl)-3-((1R,4R)-2-oxa-5-azabicyclo[2.2.1]heptan-5-yl)-5-fluoroquinoline-8-carboxamide], the figures for the IC50 in test [1], in test [2] and in test [3] were at most 100 nM, at most 10 nM and at most 10 nM, respectively.

Consider `C[C@@H]1C[C@H](N)C[C@H](c2ccncc2NC(=O)c2ccc(F)c3cc(N4CCN(S(=O)(=O)N(C)C)CC4)cnc23)C1` [Example 74, N-(4-((1R,3S,5S)-3-Amino-5-methylcyclohexyl)pyridin-3-yl)-3-(4-(N,N-dimethylsulfamoyl)piperazin-1-yl)-5-fluoroquinoline-8-carboxamide], for which the IC50 in test [1] is 100 to 1000 nM; in test [2] it was at most 10 nM; in test [3] it was at most 10 nM.

For `CCn1cc(-c2cnc3c(C(=O)Nc4cnccc4[C@@H]4C[C@H](C)C[C@H](N)C4)ccc(F)c3c2)cn1` [Example 62, N-(4-((1R,3S,5S)-3-Amino-5-methylcyclohexyl)pyridin-3-yl)-3-(1-ethyl-1H-pyrazol-4-yl)-5-fluoroquinoline-8-carboxamide], the figures for the IC50 in test [1], in test [2] and in test [3] were 100 to 1000 nM, at most 10 nM and at most 10 nM, respectively.

Regarding `C[C@@H]1C[C@H](N)C[C@H](c2ccncc2NC(=O)c2ccc(F)c3cc(N4CCCC4)cnc23)C1` [Example 3, N-{4-[(1R,3S,5S)-3-Amino-5-methylcyclohexyl]pyridin-3-yl}-5-fluoro-3-pyrrolidin-1-ylquinoline-8-carboxamide], the IC50 in test [1] is 100 to 1000 nM; in test [2], 10 to 50 nM; in test [3] it was at most 10 nM.
